Reference: the supplement of paper PMC10307832

Tests used:
Test in all cases: relative viability (nuclei count vs DMSO), 5 days (fraction); higher = more cells survive
[1] = compound: COc1ncc(-c2ccc3nccc(-c4ccnnc4)c3c2)cc1NS(=O)(=O)c1ccc(F)cc1F [Omipalisib] + O=C(c1cc(Cc2n[nH]c(=O)c3ccccc23)ccc1F)N1CCN(C(=O)C2CC2)CC1 [Olaparib] (partner 8 µM)
Outline: (§1)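 Relative viability equals treated-well nuclei counts divided by vehicle-well nuclei counts. Counts came from 4× images of lung cancer cell lines grown in 1536-well plates for 5 days after pin-tool dosing on the day after seeding. Dosing used one drug alone or a fixed anchor-drug dose plus five library-drug doses (not always all listed) in √10 steps, and values are medians of duplicate plates.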

[2] = compound: COc1ncc(-c2ccc3nccc(-c4ccnnc4)c3c2)cc1NS(=O)(=O)c1ccc(F)cc1F [Omipalisib] + Nc1ncn([C@H]2C[C@H](O)[C@@H](CO)O2)c(=O)n1 [Decitabine] (partner 2 µM)
Outline: as §1

[3] = compound: COc1ncc(-c2ccc3nccc(-c4ccnnc4)c3c2)cc1NS(=O)(=O)c1ccc(F)cc1F [Omipalisib] + CC1(C)CCC(c2ccc(Cl)cc2)=C(CN2CCN(c3ccc(C(=O)NS(=O)(=O)c4ccc(N[C@H](CCN5CCOCC5)CSc5ccccc5)c(S(=O)(=O)C(F)(F)F)c4)cc3)CC2)C1 [Navitoclax] (partner 0.5 µM)
Outline: as §1

[4] = compound: COc1ncc(-c2ccc3nccc(-c4ccnnc4)c3c2)cc1NS(=O)(=O)c1ccc(F)cc1F [Omipalisib] + NC(=O)Nc1cc(-c2cccc(F)c2)sc1C(=O)N[C@H]1CCCNC1 [AZD7762] (partner 0.2 µM)
Outline: as §1

[5] = compound: COc1ncc(-c2ccc3nccc(-c4ccnnc4)c3c2)cc1NS(=O)(=O)c1ccc(F)cc1F [Omipalisib] + O=C(CCCCCCC(=O)Nc1ccccc1)NO [Vorinostat] (partner 1 µM)
Outline: as §1

[6] = compound: COc1ncc(-c2ccc3nccc(-c4ccnnc4)c3c2)cc1NS(=O)(=O)c1ccc(F)cc1F [Omipalisib] + CC(C)C[C@H](NC(=O)[C@H](Cc1ccccc1)NC(=O)c1cnccn1)B(O)O [Bortezomib] (partner 0.002 µM)
Outline: as §1

Cell Line	relative viability ([1]; first compound 0.0003 µM)	relative viability ([1]; first compound 0.003 µM)	relative viability ([1]; first compound 0.03 µM)	relative viability ([2]; first compound 0.0003 µM)	relative viability ([2]; first compound 0.003 µM)	relative viability ([2]; first compound 0.03 µM)	relative viability ([3]; first compound 0.0003 µM)	relative viability ([3]; first compound 0.003 µM)	relative viability ([3]; first compound 0.03 µM)	relative viability ([4]; first compound 0.0003 µM)	relative viability ([4]; first compound 0.003 µM)	relative viability ([4]; first compound 0.03 µM)	relative viability ([5]; first compound 0.0003 µM)	relative viability ([5]; first compound 0.003 µM)	relative viability ([5]; first compound 0.03 µM)	relative viability ([6]; first compound 0.0003 µM)	relative viability ([6]; first compound 0.003 µM)	relative viability ([6]; first compound 0.03 µM)
PC-14	0.343	0.404	0.42	0.19	0.248	0.222	1.02	1.07	0.923	0.294	0.327	0.18	0.683	0.527	0.373	0.822	0.991	0.646
RERF-LC-KJ	0.883	0.763	0.562	0.637	0.502	0.434	0.79	0.7	0.627	0.867	0.554	0.514	0.627	0.52	0.424	1.1	0.795	0.664
